ChEMBL document CHEMBL1201862, “PubChem BioAssay data set” (2004)
One block for each molecule: values may come before it. Activity calls are given as the source filed them.

What was measured:
[1] = target: T1, Corticotropin-releasing factor receptor 2/Corticotropin-releasing factor-binding protein (Homo sapiens, UniProt P24387+Q13324); assay: Dose Response confirmation of uHTS hits for small molecule antagonists of the CRF-binding protein and CRF-R2 receptor complex.; type: functional; details: read-out: IC50_Mean
T1 sequence (Q13324 whole entry): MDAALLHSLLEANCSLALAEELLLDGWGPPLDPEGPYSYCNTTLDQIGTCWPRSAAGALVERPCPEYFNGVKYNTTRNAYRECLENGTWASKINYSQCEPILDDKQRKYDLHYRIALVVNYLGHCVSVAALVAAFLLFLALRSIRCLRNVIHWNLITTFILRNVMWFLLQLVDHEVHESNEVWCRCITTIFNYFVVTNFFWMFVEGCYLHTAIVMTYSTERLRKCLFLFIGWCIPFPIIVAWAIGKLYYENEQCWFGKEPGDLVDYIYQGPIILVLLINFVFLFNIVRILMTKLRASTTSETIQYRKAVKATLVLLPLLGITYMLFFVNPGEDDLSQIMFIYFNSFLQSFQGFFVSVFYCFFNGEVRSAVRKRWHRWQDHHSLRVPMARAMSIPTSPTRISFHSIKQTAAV
T1 sequence (P24387 whole entry): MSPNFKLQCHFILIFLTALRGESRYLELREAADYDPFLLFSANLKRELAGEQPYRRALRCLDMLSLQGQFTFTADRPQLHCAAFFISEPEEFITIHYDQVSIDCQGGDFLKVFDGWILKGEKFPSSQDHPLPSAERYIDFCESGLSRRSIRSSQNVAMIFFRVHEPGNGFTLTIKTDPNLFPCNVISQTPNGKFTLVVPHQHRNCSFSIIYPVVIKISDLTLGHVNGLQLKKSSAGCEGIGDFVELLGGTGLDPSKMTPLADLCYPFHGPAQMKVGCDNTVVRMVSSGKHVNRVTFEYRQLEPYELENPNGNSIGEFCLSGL

[2] = target: Voltage-dependent T-type calcium channel subunit alpha-1H (Homo sapiens, UniProt O95180); type: functional;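 further: channel activity triggered by adding a high calcium stimulation buffer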
[3] = target: T1, Corticotropin-releasing factor receptor 2/Corticotropin-releasing factor-binding protein; assay: activators of CRF receptor 2 with binding protein – uHTS hits, confirmation (AID 602473); type: functional; details: read-out: EC50_Mean
[4] = target: Melanin-concentrating hormone receptor 1 (Homo sapiens, UniProt Q99705); assay: Fluorescence-based counterscreen for antagonists of the G-protein coupled receptor 7 (GPR7): cell-based high throughput dose response assay to identify antagonists of the melanin-concentrating hormone receptor 1 (MCHR1).; type: functional
[5] = target: FAD-linked sulfhydryl oxidase ALR (Homo sapiens, UniProt P55789); assay: inhibitors of human ALR sulfhydryl oxidase, dose response, biochemical, H2O2 detection, luminescence, cherry-pick (AID 493248)
[6] = target: Cytochrome P450 3A4 (Homo sapiens, UniProt P08684); details: Potency;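 further: confirmatory qHTS run detecting inhibitors and substrates of CYP3A4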
[7] = target: Cytochrome P450 2C9 (Homo sapiens, UniProt P11712); details: Potency
[8] = target: T2, Carboxy-terminal domain RNA polymerase II polypeptide A small phosphatase 1 (Homo sapiens, UniProt Q9GZU7); assay: inhibitors of CTDSP1, concentration-response testing, biochemical assay, absorbance-based, actives from ultra-high-throughput screening (AID 540297); type: functional
T2 sequence (Q9GZU7 whole entry): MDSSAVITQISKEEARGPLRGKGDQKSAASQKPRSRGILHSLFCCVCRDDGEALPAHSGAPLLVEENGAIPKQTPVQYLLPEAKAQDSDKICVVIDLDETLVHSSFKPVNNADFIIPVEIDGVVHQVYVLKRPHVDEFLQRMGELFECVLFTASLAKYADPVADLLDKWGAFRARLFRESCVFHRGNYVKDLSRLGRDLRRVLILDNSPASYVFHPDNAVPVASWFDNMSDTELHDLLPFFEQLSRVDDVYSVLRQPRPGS

[9] = target: Eukaryotic translation initiation factor 4E (Mus musculus, UniProt P63073); assay: eIF4E–eIF4G protein interaction inhibitors, dose response, biochemical, TR-FRET (AID 855); type: functional;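 further: potency for disrupting eIF4E binding to eIF4GI seen as loss of FRET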
[10] = target: T3, Caspase-3 (Homo sapiens, UniProt P42574); type: functional;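 further: Dose-response selectivity test against caspase-3 for candidate inhibitors of sentrin-specific proteases (SENPs)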
T3 sequence (P42574 whole entry): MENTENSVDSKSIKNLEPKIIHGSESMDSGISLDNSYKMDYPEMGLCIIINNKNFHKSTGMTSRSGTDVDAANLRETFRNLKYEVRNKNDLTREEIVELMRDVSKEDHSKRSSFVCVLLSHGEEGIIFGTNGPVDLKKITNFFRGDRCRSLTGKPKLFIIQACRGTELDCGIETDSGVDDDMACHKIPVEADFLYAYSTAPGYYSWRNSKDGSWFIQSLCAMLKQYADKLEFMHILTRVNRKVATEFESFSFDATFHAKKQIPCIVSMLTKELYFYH

[11] = target: T4, Sentrin-specific protease 6 (Homo sapiens, UniProt Q9GZR1); type: functional;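 further: Luminescence-based dose-response confirmatory assay of SENP6 inhibition, following up an ultra-high-throughput screen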
T4 sequence (Q9GZR1 whole entry): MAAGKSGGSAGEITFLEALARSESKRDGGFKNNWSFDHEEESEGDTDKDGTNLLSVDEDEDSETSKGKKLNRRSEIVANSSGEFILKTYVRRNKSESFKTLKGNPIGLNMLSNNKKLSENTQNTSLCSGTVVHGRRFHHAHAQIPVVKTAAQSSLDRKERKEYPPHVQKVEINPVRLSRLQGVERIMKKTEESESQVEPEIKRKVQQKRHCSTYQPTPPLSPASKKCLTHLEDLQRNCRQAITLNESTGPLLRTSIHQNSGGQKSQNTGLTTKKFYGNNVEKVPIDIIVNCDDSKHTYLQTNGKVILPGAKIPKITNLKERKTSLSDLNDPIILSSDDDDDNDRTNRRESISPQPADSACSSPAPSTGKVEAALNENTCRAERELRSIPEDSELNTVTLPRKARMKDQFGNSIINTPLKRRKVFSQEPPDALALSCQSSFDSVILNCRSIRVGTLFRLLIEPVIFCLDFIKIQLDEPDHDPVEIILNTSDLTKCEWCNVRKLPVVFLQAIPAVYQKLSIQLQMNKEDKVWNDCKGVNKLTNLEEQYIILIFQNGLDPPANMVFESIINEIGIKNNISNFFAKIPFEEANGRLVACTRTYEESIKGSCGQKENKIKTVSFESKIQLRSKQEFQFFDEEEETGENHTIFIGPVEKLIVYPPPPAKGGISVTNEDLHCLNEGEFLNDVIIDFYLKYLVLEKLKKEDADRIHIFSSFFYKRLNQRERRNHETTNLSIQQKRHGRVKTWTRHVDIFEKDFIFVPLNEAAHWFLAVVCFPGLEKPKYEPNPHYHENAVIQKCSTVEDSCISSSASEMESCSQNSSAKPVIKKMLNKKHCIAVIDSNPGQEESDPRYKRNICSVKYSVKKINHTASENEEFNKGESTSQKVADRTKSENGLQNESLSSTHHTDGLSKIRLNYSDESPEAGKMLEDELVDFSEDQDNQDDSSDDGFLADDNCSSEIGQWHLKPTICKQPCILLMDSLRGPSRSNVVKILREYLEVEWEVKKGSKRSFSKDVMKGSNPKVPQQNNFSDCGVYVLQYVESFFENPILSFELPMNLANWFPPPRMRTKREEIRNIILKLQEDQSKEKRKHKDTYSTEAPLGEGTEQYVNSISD

[12] = target: T5, Sentrin-specific protease 7 (Homo sapiens, UniProt Q9BQF6); type: functional;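 further: Luminescence-based dose-response confirmation of ultra-high-throughput screening hits, measuring inhibition of SENP7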
T5 sequence (Q9BQF6 whole entry): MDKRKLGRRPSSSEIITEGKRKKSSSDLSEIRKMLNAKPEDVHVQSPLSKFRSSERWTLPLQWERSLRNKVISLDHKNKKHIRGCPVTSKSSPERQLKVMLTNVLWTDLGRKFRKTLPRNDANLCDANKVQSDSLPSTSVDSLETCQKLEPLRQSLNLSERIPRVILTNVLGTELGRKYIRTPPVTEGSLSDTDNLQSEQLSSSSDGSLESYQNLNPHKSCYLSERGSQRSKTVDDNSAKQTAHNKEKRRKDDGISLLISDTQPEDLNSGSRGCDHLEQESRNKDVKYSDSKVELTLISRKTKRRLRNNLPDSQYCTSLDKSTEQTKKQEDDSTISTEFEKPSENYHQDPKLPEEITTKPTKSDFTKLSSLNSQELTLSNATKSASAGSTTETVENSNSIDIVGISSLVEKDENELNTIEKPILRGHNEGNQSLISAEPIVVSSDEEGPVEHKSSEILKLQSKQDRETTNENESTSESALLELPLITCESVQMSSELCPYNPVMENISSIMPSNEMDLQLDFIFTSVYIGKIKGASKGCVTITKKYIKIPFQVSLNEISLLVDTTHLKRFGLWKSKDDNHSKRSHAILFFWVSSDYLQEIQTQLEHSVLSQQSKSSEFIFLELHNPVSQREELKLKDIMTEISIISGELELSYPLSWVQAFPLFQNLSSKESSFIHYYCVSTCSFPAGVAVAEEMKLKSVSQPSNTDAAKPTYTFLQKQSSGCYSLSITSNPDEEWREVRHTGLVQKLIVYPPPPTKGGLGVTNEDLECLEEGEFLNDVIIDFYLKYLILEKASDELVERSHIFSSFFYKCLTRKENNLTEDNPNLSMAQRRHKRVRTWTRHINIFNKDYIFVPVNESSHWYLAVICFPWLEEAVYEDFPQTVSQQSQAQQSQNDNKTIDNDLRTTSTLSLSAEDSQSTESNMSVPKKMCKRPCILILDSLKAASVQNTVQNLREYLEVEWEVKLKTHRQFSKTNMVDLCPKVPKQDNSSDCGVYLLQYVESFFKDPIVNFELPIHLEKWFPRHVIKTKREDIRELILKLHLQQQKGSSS

[13] = target: T6, Sentrin-specific protease 8 (Homo sapiens, UniProt Q96LD8); type: functional;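 further: luminescence read-out of SENP8 inhibition, dose-response confirmation following an ultra-high-throughput screen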
T6 sequence (Q96LD8 whole entry): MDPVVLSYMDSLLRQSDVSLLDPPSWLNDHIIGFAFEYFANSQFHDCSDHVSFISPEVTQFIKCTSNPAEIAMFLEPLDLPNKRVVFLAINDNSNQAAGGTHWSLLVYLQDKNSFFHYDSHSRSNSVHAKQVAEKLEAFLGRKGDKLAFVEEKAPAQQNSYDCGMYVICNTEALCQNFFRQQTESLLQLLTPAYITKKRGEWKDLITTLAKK

Voltage-dependent T-type calcium channel subunit alpha-1H, sequence (O95180 whole entry): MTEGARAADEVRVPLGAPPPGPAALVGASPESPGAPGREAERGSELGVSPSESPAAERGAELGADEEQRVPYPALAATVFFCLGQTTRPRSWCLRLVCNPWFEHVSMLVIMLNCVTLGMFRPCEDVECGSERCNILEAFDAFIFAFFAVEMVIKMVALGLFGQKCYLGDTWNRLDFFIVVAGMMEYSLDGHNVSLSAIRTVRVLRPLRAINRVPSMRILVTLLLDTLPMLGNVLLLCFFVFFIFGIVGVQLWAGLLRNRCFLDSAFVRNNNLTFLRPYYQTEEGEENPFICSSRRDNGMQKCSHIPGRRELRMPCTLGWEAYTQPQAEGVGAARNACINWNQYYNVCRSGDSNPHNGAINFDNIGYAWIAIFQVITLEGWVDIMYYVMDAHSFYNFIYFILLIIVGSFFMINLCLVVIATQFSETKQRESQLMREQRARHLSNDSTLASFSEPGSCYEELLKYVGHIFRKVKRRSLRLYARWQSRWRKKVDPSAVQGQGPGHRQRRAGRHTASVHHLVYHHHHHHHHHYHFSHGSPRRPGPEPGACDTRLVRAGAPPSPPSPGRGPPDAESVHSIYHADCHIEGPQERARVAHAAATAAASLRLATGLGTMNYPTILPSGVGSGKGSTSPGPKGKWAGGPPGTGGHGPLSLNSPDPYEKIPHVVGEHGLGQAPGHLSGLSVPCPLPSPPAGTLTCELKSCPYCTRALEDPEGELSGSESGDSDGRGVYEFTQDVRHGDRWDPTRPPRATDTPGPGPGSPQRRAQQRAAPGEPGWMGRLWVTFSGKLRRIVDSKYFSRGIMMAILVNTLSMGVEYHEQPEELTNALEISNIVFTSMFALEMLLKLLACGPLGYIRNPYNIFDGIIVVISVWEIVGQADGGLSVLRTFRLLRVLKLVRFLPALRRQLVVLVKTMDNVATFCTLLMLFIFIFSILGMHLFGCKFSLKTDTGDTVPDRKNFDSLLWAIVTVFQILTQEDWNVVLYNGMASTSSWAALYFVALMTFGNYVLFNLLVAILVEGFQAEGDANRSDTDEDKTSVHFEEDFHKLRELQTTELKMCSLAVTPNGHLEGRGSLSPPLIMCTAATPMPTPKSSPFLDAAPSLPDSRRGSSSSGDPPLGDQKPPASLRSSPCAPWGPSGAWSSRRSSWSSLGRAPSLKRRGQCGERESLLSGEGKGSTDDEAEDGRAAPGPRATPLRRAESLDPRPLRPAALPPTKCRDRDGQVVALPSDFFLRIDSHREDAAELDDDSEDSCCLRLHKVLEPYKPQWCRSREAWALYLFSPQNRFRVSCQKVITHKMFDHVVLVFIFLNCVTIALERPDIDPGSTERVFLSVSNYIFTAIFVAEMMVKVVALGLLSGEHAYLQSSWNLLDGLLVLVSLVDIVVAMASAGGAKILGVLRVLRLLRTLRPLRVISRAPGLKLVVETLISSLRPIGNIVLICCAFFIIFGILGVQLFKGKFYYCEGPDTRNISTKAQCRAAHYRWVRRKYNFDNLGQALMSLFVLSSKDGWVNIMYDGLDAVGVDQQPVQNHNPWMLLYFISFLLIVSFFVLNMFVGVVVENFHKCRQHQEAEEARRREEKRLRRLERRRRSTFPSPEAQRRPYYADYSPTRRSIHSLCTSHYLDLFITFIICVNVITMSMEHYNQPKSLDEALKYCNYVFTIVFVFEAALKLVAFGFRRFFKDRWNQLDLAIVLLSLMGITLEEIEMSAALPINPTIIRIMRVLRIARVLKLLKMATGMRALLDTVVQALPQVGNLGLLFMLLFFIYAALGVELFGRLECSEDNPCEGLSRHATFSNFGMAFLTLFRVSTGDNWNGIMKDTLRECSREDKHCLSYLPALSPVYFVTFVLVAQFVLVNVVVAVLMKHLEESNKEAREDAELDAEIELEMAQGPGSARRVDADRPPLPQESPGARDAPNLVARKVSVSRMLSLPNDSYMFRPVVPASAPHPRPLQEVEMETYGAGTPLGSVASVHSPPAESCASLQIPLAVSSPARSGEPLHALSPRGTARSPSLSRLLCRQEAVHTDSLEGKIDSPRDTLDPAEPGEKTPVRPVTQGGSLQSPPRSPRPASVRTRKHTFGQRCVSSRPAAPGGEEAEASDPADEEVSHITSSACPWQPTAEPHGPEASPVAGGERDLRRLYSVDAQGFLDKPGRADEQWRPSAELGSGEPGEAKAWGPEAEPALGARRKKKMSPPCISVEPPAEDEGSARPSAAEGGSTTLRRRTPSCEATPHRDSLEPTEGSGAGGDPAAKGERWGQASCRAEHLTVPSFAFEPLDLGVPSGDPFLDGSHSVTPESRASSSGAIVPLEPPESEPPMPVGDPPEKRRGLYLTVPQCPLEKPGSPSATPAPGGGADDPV
Cytochrome P450 2C9, sequence (P11712 whole entry, the tested form may be a part): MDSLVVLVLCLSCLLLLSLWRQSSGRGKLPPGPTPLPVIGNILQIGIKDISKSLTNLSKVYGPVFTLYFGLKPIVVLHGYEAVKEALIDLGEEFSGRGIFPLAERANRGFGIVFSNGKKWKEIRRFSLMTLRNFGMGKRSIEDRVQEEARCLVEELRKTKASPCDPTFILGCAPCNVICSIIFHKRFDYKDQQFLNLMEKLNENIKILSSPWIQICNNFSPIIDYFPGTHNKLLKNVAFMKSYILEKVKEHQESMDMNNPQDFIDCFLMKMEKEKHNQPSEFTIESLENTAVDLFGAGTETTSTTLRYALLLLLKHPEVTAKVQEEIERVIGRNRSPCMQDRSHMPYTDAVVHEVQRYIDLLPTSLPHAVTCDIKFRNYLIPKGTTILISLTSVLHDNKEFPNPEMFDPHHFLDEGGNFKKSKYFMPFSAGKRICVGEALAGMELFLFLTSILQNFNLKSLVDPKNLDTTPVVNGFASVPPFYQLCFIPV
Melanin-concentrating hormone receptor 1, sequence (Q99705 whole entry): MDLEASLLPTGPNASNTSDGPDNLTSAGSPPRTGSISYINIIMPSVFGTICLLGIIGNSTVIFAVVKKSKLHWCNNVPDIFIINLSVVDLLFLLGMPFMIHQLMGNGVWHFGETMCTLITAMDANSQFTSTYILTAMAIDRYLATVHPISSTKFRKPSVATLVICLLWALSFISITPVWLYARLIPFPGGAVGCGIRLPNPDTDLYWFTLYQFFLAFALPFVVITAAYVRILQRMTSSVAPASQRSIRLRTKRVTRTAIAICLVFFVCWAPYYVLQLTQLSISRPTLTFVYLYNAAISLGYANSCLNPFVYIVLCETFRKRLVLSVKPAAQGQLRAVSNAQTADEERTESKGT
FAD-linked sulfhydryl oxidase ALR, sequence (P55789 whole entry): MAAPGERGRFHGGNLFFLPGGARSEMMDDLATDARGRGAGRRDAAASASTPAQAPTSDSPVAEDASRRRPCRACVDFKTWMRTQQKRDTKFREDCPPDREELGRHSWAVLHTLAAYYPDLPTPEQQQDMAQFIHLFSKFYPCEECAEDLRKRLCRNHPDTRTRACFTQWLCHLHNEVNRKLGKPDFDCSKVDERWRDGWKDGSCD
Eukaryotic translation initiation factor 4E, sequence (P63073 whole entry): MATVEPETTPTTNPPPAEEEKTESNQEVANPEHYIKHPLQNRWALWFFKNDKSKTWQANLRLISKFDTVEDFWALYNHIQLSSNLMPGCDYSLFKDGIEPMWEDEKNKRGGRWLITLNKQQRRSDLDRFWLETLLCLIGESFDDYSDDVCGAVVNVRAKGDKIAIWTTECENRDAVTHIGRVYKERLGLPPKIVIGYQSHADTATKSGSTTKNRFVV
Cytochrome P450 3A4, sequence (P08684 whole entry): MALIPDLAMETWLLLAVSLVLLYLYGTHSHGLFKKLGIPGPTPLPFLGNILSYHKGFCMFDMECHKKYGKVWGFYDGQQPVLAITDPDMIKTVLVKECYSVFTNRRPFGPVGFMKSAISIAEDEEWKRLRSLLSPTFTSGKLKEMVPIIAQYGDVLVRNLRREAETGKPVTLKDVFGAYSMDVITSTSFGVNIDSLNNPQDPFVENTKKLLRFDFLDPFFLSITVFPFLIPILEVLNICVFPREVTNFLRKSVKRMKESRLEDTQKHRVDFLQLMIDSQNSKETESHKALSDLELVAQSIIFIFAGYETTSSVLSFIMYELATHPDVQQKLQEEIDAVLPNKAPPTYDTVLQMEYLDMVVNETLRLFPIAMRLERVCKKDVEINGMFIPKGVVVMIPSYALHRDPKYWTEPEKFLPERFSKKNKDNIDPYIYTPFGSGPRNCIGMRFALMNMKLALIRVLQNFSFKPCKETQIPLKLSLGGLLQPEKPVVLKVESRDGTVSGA

SMILES: Cc1ccccc1NC(=O)c1ccc(-c2ccc(Cl)cc2Cl)o1
IC50 [1]: > 47.1 µM (inactive) | EC50 [2]: 7.96 µM (active) | EC50 [3]: > 53 µM (inactive)

SMILES: FC(F)(F)c1cc(C(F)(F)F)c2ccc(N3CCN(c4ccc(Cl)cc4)CC3)nc2n1
EC50 [2]: 5.43 µM (active)

SMILES: COc1ccc(/C=C/C(=O)c2ccccc2O)cc1
IC50 [10]: 23.1 µM (active) | IC50 [11]: 6 µM (active) | IC50 [12]: 3.93 µM (active) | IC50 [13]: 10.6 µM (active) | AC50 [7]: 3.98 µM (inconclusive)

More lines, now with the values ahead:

IC50 [4]: 21.5 µM (not active) | AC50 [5]: 8.49 µM (active)
SMILES: CCn1c(CNc2ccc(Cl)cc2)nnc1SCCN1CCCCC1

EC50 [2]: 4.88 µM (active)
SMILES: Cc1nn(Cc2c(F)c(F)c(F)c(F)c2F)c(C)c1NC(=O)c1ccc(COc2ccc(F)cc2)o1

AC50 [6]: 3.16 µM (inconclusive) | AC50 [7]: 3.98 µM (inconclusive)
SMILES: CC1CCC2C(=O)OC(CO)CN2C1c1ccc(Br)cc1 (stereo unspecified)

IC50 [8]: 4.16 µM (active) | IC50 [9]: 50 µM (inactive)
SMILES: Cc1ccc([N+](=O)[O-])cc1NC(=O)Cc1cccs1
